A short description of data set [1]: Hygroscopicity by dynamic vapor sorption (DVS). It is filed as physicochemical. The protocol:
1.4 Dynamic Vapor Sorption (DVS) Instrument model: SMS DVS Advantage dynamic vapor sorption analyzer Detection conditions: samples (10 mg to 15 mg) were placed in a DVS sample tray for detection. The detailed DVS parameters are as follows: Temperature: 25° C. Equilibrium: dm/dt=0.01%/min (shortest: 10 min, longest: 180 min) Drying: 120 minutes at 0% RH RH (%) gradient for testing: 10% RH (%) gradient range for testing: 0%-90%-0% The hygroscopicity was evaluated using the following scales: [table] Experimental Method: a sample (10-15 mg) was placed in a DVS sample tray for testing, and analyzed by dynamic vapor sorption (DVS) method.

Data set [2] is described as follows: Thermal gravimetric analysis (TGA). It counts as physicochemical. On the procedure: 1.3 Thermal Gravimetric Analyzer (TGA)
Instrument Model: TA Q5000 thermal gravimetric analyzer
Detection method: samples (2 mg to 5 mg) were placed in a TGA platinum crucible for detection, and heated from room temperature to 210° C. with a heating rate of 10° C./min under the condition of 25 mL/min N2.

Data set [3] can be described thus: Solubility test of the crystal form A. It is filed as physicochemical. The conditions noted are these: thermodynamic from solid, room temperature. On the procedure:
Experimental Method: about 2.0 mg sample was weighed and placed into a 1.5 mL borosilicate glass bottle, followed by addition of the following solvents with a pipetting gun respectively, and appropriate ultrasonic treatment was performed for dissolving. The test was carried out at room temperature, and the dissolution was detected by naked eye.

Data set [4] deals with NDM-1 carbapenemase-producing Klebsiella Pneumoniae. Briefly: In vitro synergistic inhibitory concentration (SIC) assay, broth microdilution MIC. It counts as cell-based. The conditions noted are these: NDM-1, 8 strains; for MIC50 / MIC90: Klebsiella pneumoniae; for MIC50 / MIC90 / MIC range: enzyme inhibitor fixed at 4 g/mL (so in the source); for drug resistance rate / sensitive rate: by the S/R criteria. The protocol: (§1) The minimum inhibitory concentration (MIC) of the compound of formula (I) against clinically isolated carbapenemase-producing strains was determined by the broth microdilution method.
(§2) 1. Drug susceptibility test: the MIC of commonly used antibacterial drugs against clinically isolated bacteria was determined by the broth microdilution method according to the antimicrobial susceptibility test method described in the 2016 edition of the U.S. Clinical and Laboratory Standards Institute (CLSI) document.
(§3) 2. Strains: 8 KPC-2 carbapenemase-producing strains, 8 NDM-1 metalloenzyme-producing strains, 6 OXA carbapenemase-producing strains, and all strains were clinically isolated Klebsiella pneumoniae.
(§4) 4. Quality control strains: the quality control strains for the drug susceptibility test included Escherichia coli ATCC 25922 and ATCC 35218.

The subject of data set [5] is KPC-2 carbapenemase-producing Klebsiella Pneumoniae. Described as above. It is filed as cell-based. The conditions noted are these: for drug resistance rate / sensitive rate: by the S/R criteria; for MIC50 / MIC90: Klebsiella pneumoniae. On the procedure:
as §1, §2, §3, §4

Data set [6] has as its system OXA-181 carbapenemase-producing Klebsiella Pneumoniae. Described as above. It is filed as cell-based. The conditions noted are these: OXA-181, 7 strains; for MIC50 / MIC90: Klebsiella pneumoniae; for drug resistance rate / sensitive rate: by the S/R criteria. On the procedure:
as §1, §2
2. […]
as §4

[7] abbreviates: KPC-2, 8 strains, enzyme inhibitor fixed at 4 g/mL (so in the source).
Setting [8] is: enzyme inhibitor fixed at 4 g/mL (so in the source).

SMILES strings stand for the structures. ≈ marks a conversion by molar mass, not a printed value. Where two headings read alike, the source gives them in different places.

Take `N=C(N)NOCCONC(=O)C1CCC2CN1C(=O)N2OS(=O)(=O)O` (centres unmarked): the “hygroscopic weight gain ΔW” value in data set [1] (DVS, 25° C./80% RH) amounted to 0.2910%. In addition, the hygroscopicity scale entry in data set [1] (DVS, 25° C./80% RH) is reported as “low hygroscopicity”. In addition, in data set [1] (after DVS test), the “crystal form after DVS (XRPD)” value was “the crystal form has not changed”. Besides, in data set [2] (TGA), the thermal stability result is listed as “good thermal stability”. The TGA weight loss in data set [2] (heated to 194.61° C.) came out at 0.5689%. Besides, the solubility was 20500 to 34200 µg/mL (≈ 53.6 to 89.4 mM) in data set [3] (aqueous with cosolvent or surfactant or cyclodextrin, Acetone-water (1:2)); more than 103000 µg/mL in data set [3] (aqueous with cosolvent or surfactant or cyclodextrin, Acetonitrile-water (1:1)); 10100 to 20200 µg/mL (≈ 26.4 to 52.8 mM) in data set [3] (aqueous with cosolvent or surfactant or cyclodextrin, Ethanol-water (1:1)); less than 2000 µg/mL in data set [3] (aqueous with cosolvent or surfactant or cyclodextrin, Ethanol-water (3:1)); 6800 to 10200 µg/mL (≈ 17.8 to 26.7 mM) in data set [3] (aqueous with cosolvent or surfactant or cyclodextrin, Isopropanol-water (1:1)); 4100 to 5200 µg/mL (≈ 10.7 to 13.6 mM) in data set [3] (aqueous with cosolvent or surfactant or cyclodextrin, Methanol-water (1:1)). Further, the solubility in data set [3] (aqueous with cosolvent or surfactant or cyclodextrin, Methanol-water (3:1)) was 2100 to 2600 µg/mL (≈ 5.49 to 6.8 mM); in data set [3] (organic solvent or mixture, 1,4-Dioxane), less than 2100 µg/mL; in data set [3] (organic solvent or mixture, 2-Methyltetrahydrofuran), less than 2000 µg/mL; in data set [3] (organic solvent or mixture, Acetone) it was less than 1900 µg/mL; in data set [3] (organic solvent or mixture, Acetonitrile), less than 1900 µg/mL; in data set [3] (organic solvent or mixture, Butanone), less than 2000 µg/mL. Further, the solubility in data set [3] (organic solvent or mixture, Cyclohexane) was less than 2100 µg/mL; in data set [3] (organic solvent or mixture, Ethanol), less than 1900 µg/mL; in data set [3] (organic solvent or mixture, Ethyl acetate), less than 2000 µg/mL; in data set [3] (organic solvent or mixture, Isopropanol) it was less than 2000 µg/mL; in data set [3] (organic solvent or mixture, Isopropyl acetate) it was less than 2000 µg/mL; in data set [3] (organic solvent or mixture, Methanol), less than 1900 µg/mL. For the same molecule, the solubility in data set [3] (organic solvent or mixture, Methyl isobutyl ketone) is less than 2000 µg/mL; in data set [3] (organic solvent or mixture, Methyl tert-butyl ether), less than 2000 µg/mL; in data set [3] (organic solvent or mixture, Tetrahydrofuran), less than 2000 µg/mL; in data set [3] (organic solvent or mixture, Toluene), less than 2000 µg/mL; in data set [3] (organic solvent or mixture, n-Butanol), less than 2000 µg/mL; in data set [3] (organic solvent or mixture, n-Heptane) it was less than 2000 µg/mL. The molecule also had a solubility in data set [3] (Water) of 10200 to 20400 µg/mL (≈ 26.7 to 53.4 mM).

For `C[C@H]1[C@H](NC(=O)/C(=N\OC(C)(C)C(=O)O)c2csc(N)n2)C(=O)N1S(=O)(=O)O` [Aztreonam], in data set [4], the MIC50 was found to be 64 µg/mL.

With `CC(C)(O/N=C(\C(=O)N[C@@H]1C(=O)N2C(C(=O)[O-])=C(C[n+]3ccccc3)CS[C@H]12)c1csc(N)n1)C(=O)O` [Ceftazidime], the drug resistance rate amounted to 100 in data set [5] (KPC-2, 8 strains); 100 in data set [4]; 100 in data set [6]. The sensitive rate is recorded as 0 in data set [5] (KPC-2, 8 strains); 0 in data set [4]; 0 in data set [6]. Besides, the MIC range in data set [5] (setting [7]) was 64 to 128 µg/mL; in data set [4] it was more than 128 µg/mL. Also, the MIC50 in data set [5] (setting [7]), in data set [4] and in data set [6] (setting [8]) was more than 128 µg/mL throughout. Also, the MIC90 in data set [5] (KPC-2, 8 strains, enzyme inhibitor fixed at 4 g/mL (so in the source), read-out: MIC90) is more than 128 µg/mL; in data set [4], more than 128 µg/mL; in data set [6] (setting [8]), more than 128 µg/mL.

On to `C[C@@H](O)[C@H]1C(=O)N2C(C(=O)O)=C(S[C@@H]3CN[C@H](C(=O)N(C)C)C3)[C@H](C)[C@H]12` [Meropenem], for which the drug resistance rate stood at 100 in data set [5] (KPC-2, 8 strains); 75 in data set [4]; 0 in data set [6]. The sensitive rate in data set [5] (KPC-2, 8 strains) stood at 0; in data set [4], 0; in data set [6], 85.7. The MIC90 in data set [5] worked out at 128 µg/mL; in data set [4], 32 µg/mL; in data set [6] (setting [8]), 2 µg/mL. The MIC50 is 64 µg/mL in data set [5] (setting [7]), 4 µg/mL in data set [4] and 0.5 µg/mL in data set [6] (setting [8]). The MIC range in data set [4] fell in the range of 2 to 32 µg/mL; in data set [6] (setting [8]), 0.5 to 2 µg/mL.

Values taken from patent US11180501B2, “Crystal form of β-lactamase inhibitor and preparation method therefor” (priority 2017, dated 2021).
